How the values were obtained:
Format in all cases: cell-based
Beta-secretase 1 [1] = target: T1, Beta-secretase 1 (Homo sapiens, UniProt P56817); assay: Ratio of IC50 for BACE1 in HEK293 cells expressing APP 695 Swedish mutant to Ki for BACE1
Beta-secretase 1 [2] = target: T1, Beta-secretase 1; assay: Displacement of [3H]BMS-599240 from BACE1 expressed in HEK293 cells
Beta-secretase 1 [3] = target: T1, Beta-secretase 1; assay: Inhibition of BACE1 in human HEK293 cells expressing APP 695 Swedish mutant assessed as inhibition of amyloid beta (1 to 40) production after overnight incubation by ELISA
Beta-secretase 1 [4] = target: T1, Beta-secretase 1; assay: Ratio of IC50 for BACE1 in human KBV1 cells expressing APP 751 Swedish mutant in absence of tariquidar to IC50 for BACE1 in human KBV1 cells expressing APP 751 Swedish mutant in presence of tariquidar

T1 sequence (P56817 whole entry): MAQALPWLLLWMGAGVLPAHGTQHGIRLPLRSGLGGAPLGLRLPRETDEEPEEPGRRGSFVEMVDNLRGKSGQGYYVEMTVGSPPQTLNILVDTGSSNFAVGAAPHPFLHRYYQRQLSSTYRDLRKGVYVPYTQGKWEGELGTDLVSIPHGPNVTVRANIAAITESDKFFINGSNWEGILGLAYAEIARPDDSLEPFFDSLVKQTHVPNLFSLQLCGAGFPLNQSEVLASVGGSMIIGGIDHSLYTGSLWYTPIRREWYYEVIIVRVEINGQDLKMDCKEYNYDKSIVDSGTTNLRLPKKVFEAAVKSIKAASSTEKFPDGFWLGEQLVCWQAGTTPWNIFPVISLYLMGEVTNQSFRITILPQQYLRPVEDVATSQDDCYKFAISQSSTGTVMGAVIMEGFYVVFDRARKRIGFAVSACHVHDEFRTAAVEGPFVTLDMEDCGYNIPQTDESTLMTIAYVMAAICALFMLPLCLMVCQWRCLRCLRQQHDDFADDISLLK

Row | Compound | Ratio (Beta-secretase 1 [1]) | Ki (Beta-secretase 1 [2]) | IC50 (Beta-secretase 1 [3]) | Ratio IC50 (Beta-secretase 1 [4])
1 | CCNCC(=O)Nc1c(Cl)cc(CN/C(N)=N/C(=O)c2c(-c3ccc(OC)cc3)nsc2C)cc1Cl | 2 | 10 nM | 20 nM | –
2 | COc1ccc(-c2nsc(C)c2C(=O)/N=C(\N)NCc2cccc3ccccc23)cc1 | – | 500 nM | – | –
3 | CCCOc1c(Cl)cc(CN=C(N)NC(=O)c2c(-c3ccc(OC)cc3)noc2C)cc1Cl | – | > 5000 nM | – | –
4 | COc1ccc(-c2nsc(C)c2C(=O)/N=C(\N)NCc2cc(C)c(NC(=O)c3ccccc3)c(Cl)c2)cc1 | 13 | 30 nM | 430 nM | –
5 | COc1ccc(-c2nsc(C)c2C(=O)NC(N)=NCc2cc(C)c(NC(C)=O)c(Cl)c2)cc1 | – | 20 nM | 240 nM | –
6 | Cc1onc(-c2ccccc2)c1C(=O)NC(N)=NCc1ccc(Cl)c(Cl)c1 | – | 8800 nM | – | –
7 | COc1ccc(-c2nsc(C)c2C(=O)NC(N)=NCc2cc(C)c(NC(=O)CN(C)C)c(Cl)c2)cc1 | – | 20 nM | 20 nM | –
8 | COc1ccc(-c2onc(C)c2C(=O)/N=C(\N)NCc2cc(Cl)cc(Cl)c2)cc1 | – | 860 nM | – | –
9 | COc1ccc(-c2noc(C)c2C(=O)/N=C(\N)NCc2cc(Cl)c(O)c(Cl)c2)cc1 | – | 480 nM | – | –
10 | COc1ccc(-c2noc(C)c2C(=O)/N=C(\N)NCc2cc(Cl)c(NC(C)=O)c(Cl)c2)cc1 | – | 10 nM | 790 nM | –
11 | COc1ccc(-c2nsc(C)c2C(=O)/N=C(\N)NCc2cc(Cl)c(NC(=O)CNCc3ccccc3)c(Cl)c2)cc1 | 23 | – | – | –
12 | COc1ccc(-c2noc(C)c2C(=O)/N=C(\N)NCc2cc(C)c(NC(=O)C3CC3)c(Cl)c2)cc1 | 16 | 20 nM | 330 nM | –
13 | CCNCC(=O)Nc1c(C)cc(CN/C(N)=N/C(=O)c2c(-c3ccc(OC)cc3)nsc2C)cc1Cl | 0.5 | 20 nM | 10 nM | –
14 | Cc1onc(-c2ccc(F)cc2)c1C(=O)/N=C(\N)NCc1ccc(Cl)c(Cl)c1 | – | 2400 nM | – | –
15 | COc1ccc(-c2noc(C)c2C(=O)/N=C(\N)NCc2ccccc2)cc1 | – | 4000 nM | – | –
16 | COc1ccc(-c2noc(C)c2C(=O)NC(N)=NCc2cc(Cl)cc(-c3ccsc3)c2)cc1 | – | 1200 nM | – | –
17 | COc1ccc(-c2noc(C)c2C(=O)/N=C(\N)NCc2cc(Cl)c(NC(=O)CSC)c(Cl)c2)cc1 | 40 | – | – | –
18 | COc1ccc(-c2noc(C)c2C(=O)NC(N)=NCc2cc(Cl)c(NC(=O)CSC)c(Cl)c2)cc1 | – | 50 nM | 2000 nM | –
19 | COc1ccc(-c2nsc(C)c2C(=O)/N=C(\N)NCc2cc(C)c(NC(=O)CN(C)C)c(Cl)c2)cc1 | 1 | – | – | –

Row | Compound | Ratio (Beta-secretase 1 [1]) | Ki (Beta-secretase 1 [2]) | IC50 (Beta-secretase 1 [3]) | Ratio IC50 (Beta-secretase 1 [4])
20 | Cc1onc(-c2ccc(F)cc2)c1C(=O)/N=C(\N)NCc1cccc2ccccc12 | – | 1800 nM | – | –
21 | COc1ccc(-c2nsc(C)c2C(=O)/N=C(\N)NCc2cc(Cl)cc(Cl)c2)cc1 | – | 290 nM | > 5000 nM | –
22 | COc1ccc(-c2nsc(C)c2C(=O)/N=C(\N)NCc2ccc3ccccc3c2)cc1 | – | 870 nM | – | –
23 | COc1ccc(-c2nsc(C)c2C(=O)NC(N)=NCc2cc(C)c(NC(=O)CNCc3ccccc3)c(Cl)c2)cc1 | – | 10 nM | 70 nM | –
24 | Cc1onc(-c2ccccc2)c1C(=O)/N=C(\N)NCc1ccccc1 | – | > 10000 nM | – | –
25 | COc1ccc(-c2noc(C)c2C(=O)/N=C(\N)NCc2cc(C)c(NC(=O)c3ccco3)c(Cl)c2)cc1 | 23 | 60 nM | 1400 nM | –
26 | CCC(=O)Nc1c(C)cc(CN=C(N)NC(=O)c2c(-c3ccc(OC)cc3)noc2C)cc1Cl | – | 40 nM | 780 nM | –
27 | COc1ccc(-c2nsc(C)c2C(=O)/N=C(\N)NCc2cc(Cl)c(NC(=O)CN(C)C)c(Cl)c2)cc1 | 4 | 20 nM | 70 nM | –
28 | CCC(=O)Nc1c(C)cc(CN/C(N)=N/C(=O)c2c(-c3ccc(OC)cc3)noc2C)cc1Cl | 19 | – | – | –
29 | Cc1onc(-c2ccc(F)cc2)c1C(=O)NC(N)=NCc1cc(Cl)cc(Cl)c1 | – | 2200 nM | – | –
30 | Cc1onc(-c2ccccc2)c1C(=O)NC(N)=NCc1cccc2ccccc12 | – | 3900 nM | – | –
31 | COc1ccc(-c2nsc(C)c2C(=O)/N=C(\N)NCc2cc(C)c(NC(=O)CNCc3ccccc3)c(Cl)c2)cc1 | 7 | – | – | –
32 | COc1ccc(-c2noc(C)c2C(=O)NC(N)=NCc2cc(C)c(NC(=O)CCSC)c(Cl)c2)cc1 | – | 30 nM | 640 nM | –
33 | COc1ccc(-c2noc(C)c2C(=O)/N=C(\N)NCc2cccc3ccccc23)cc1 | – | 1700 nM | – | –
34 | COc1ccc(-c2noc(C)c2C(=O)NC(N)=NCc2cc(Cl)c(N)c(Cl)c2)cc1 | – | 120 nM | – | –
35 | COc1ccc(-c2noc(C)c2C(=O)/N=C(\N)NCc2cc(Cl)cc(-c3cccnc3)c2)cc1 | – | 1800 nM | – | –
36 | COc1ccc(-c2noc(C)c2C(=O)/N=C(\N)NCc2cc(Cl)cc(/C=C/CCO)c2)cc1 | – | 140 nM | – | –
37 | COc1ccc(-c2noc(C)c2C(=O)/N=C(\N)NCc2cc(C)c(NC(=O)CCSC)c(Cl)c2)cc1 | 21 | – | – | –
38 | COc1ccc(-c2noc(C)c2C(=O)/N=C(\N)NCc2cc(Cl)c(NC(=O)C3CC3)c(Cl)c2)cc1 | 32 | 50 nM | 1600 nM | –

Row | Compound | Ratio (Beta-secretase 1 [1]) | Ki (Beta-secretase 1 [2]) | IC50 (Beta-secretase 1 [3]) | Ratio IC50 (Beta-secretase 1 [4])
39 | Cc1onc(-c2ccccc2)c1C(=O)/N=C(\N)NCc1cc(Cl)cc(Cl)c1 | – | 3900 nM | – | –
40 | COc1ccc(-c2noc(C)c2C(=O)/N=C(\N)NCc2cc(C)c(NC(=O)CN(C)C)c(Cl)c2)cc1 | 2 | 50 nM | 90 nM | –
41 | CCC/C=C/c1cc(Cl)cc(CN=C(N)NC(=O)c2c(-c3ccc(OC)cc3)noc2C)c1 | – | 850 nM | – | –
42 | Cc1onc(-c2ccc(F)cc2)c1C(=O)NC(N)=NCc1ccccc1 | – | > 10000 nM | – | –
43 | COc1ccc(-c2noc(C)c2C(=O)/N=C(\N)NCc2cc(Cl)c(NC(=O)CS(C)(=O)=O)c(Cl)c2)cc1 | 63 | – | – | –
44 | COC/C=C/c1cc(Cl)cc(CN/C(N)=N/C(=O)c2c(-c3ccc(OC)cc3)noc2C)c1 | – | 150 nM | – | –
45 | COc1ccc(-c2noc(C)c2C(=O)/N=C(\N)NCc2cc(Cl)cc(Br)c2)cc1 | – | 510 nM | – | –
46 | C=Cc1cc(Cl)cc(CN/C(N)=N/C(=O)c2c(-c3ccc(OC)cc3)noc2C)c1 | – | 430 nM | – | –
47 | COc1ccc(-c2nsc(C)c2C(=O)/N=C(\N)NCc2cc(Cl)c(NC(=O)CN3CCC3)c(Cl)c2)cc1 | 2 | – | – | 23
48 | COc1ccc(-c2nsc(C)c2C(=O)/N=C(\N)NCc2cc(Cl)c(NS(C)(=O)=O)c(Cl)c2)cc1 | – | 280 nM | – | –
49 | COc1ccc(-c2nsc(C)c2C(=O)/N=C(\N)NCc2cc(Cl)c(N)c(Cl)c2)cc1 | – | – | – | 1.7
50 | COc1ccc(-c2nsc(C)c2C(=O)NC(N)=NCc2cc(Cl)c(NC(=O)CNCc3ccccc3)c(Cl)c2)cc1 | – | 6 nM | 140 nM | –
51 | COc1ccc(-c2c(C(=O)/N=C(\N)NCc3cc(Cl)cc(Cl)c3)c(C)nn2C)cc1 | – | 4000 nM | – | –
52 | COc1ccc(-c2noc(C)c2C(=O)NC(N)=NCc2cc(Cl)c(NC(=O)CS(C)(=O)=O)c(Cl)c2)cc1 | – | 30 nM | 1900 nM | –
53 | COc1ccc(-c2nsc(C)c2C(=O)/N=C(\N)NCc2cc(C)c(NC(C)=O)c(Cl)c2)cc1 | 12 | – | – | –
54 | COc1ccc(-c2noc(C)c2C(=O)NC(N)=NCc2ccc(Cl)c(Cl)c2)cc1 | – | 910 nM | – | –
55 | COc1ccc(-c2noc(C)c2C(=O)/N=C(\N)NCc2cc(Cl)c(NC(=O)CN(C)C)c(Cl)c2)cc1 | 4 | 50 nM | 210 nM | –
56 | COc1ccc(-c2[nH]nc(C)c2C(=O)/N=C(\N)NCc2cc(Cl)cc(Cl)c2)cc1 | – | 210 nM | – | –
57 | COc1ccc(-c2noc(C)c2C(=O)/N=C(\N)NCc2cc(C)cc(C)c2)cc1 | – | 280 nM | – | –
